Test results from patent publication US20100016207A1, “Methods and Compositions for Raising Levels and Release of Gamma Aminobutyric Acid” (priority 2005, published 2010).

How the values were obtained:
[1] = test system: brain (striatal) GABA, glutamine and glutamate levels; assay: Striatal tissue neurotransmitter contents after oral glutamine (HPLC-EC); format: in vivo, Sprague Dawley rats; conditions: Gln by gavage, striata 2.5 hrs after dosing, vs saline (FIG. 3)
Description: (§1) Male adult Sprague Dawley (SD) rats (˜250 g) (n=9) were reared under and exposed to a 12 hr light/dark cycle, and provided with food (16% protein) and water ad libitum. Gln (0.5 grams per kilogram (g/Kg) or 1.0 g/Kg, in saline) or saline were administered by gavage. Rats were sacrificed by decapitation 2.5 hours (h) later.
To measure GABA contents, brains were quickly dissected on a chilled dissection board. Striata were homogenized with HClO4 and neutralized with 0.1 M Borate buffer (1:10). Data were normalized by the wet weights of the samples.
(§2) GABA was measured by HPLC, using an ODS column and OPA-sulfite derivation with electrochemical detection. OPA-sulfite HPLC-EC derivation was used to measure GABA levels in both brain tissue and microdialysis samples. The samples were derivatized at 4° C. to allow usage of an auto-sampler (Alltech 580). The detector used was an ESA Coulochem® II 5100A with an ESA microdialysis cell.
(§3) Data are presented as mean+/−S.E.M. ANOVA or t-test was used to determine differences between groups (significance level, p<0.05).

[2] = test system: GABA release in rat striatum; assay: Microdialysis of spontaneous and NMDA-evoked GABA release in rat striatum; format: in vivo, rats; conditions: striatal microdialysis, mean±S.E.M.
Description: as §2, §3
Microdialysis was carried out in freely moving rats. Rats were anesthetized, and CMA/11 guide cannulas were permanently implanted into right striatum (AP=+0.5, ML=−3.0 from Bregma, DV=−3.3 mm from Dura) 1 week prior to microdialysis sampling. Dialysis collection was performed using a CMA/11 probe (4 mm), perfused with artificial cerebrospinal fluid (aCSF) at […] and collected at 20 min intervals.
GABAergic neurons were stimulated by NMDA (500 μM) in aCSF, 1 hr after Gln administration by gavage.

[3] = Plasma glutamate and glutamine levels after oral glutamine; format: in vivo, Sprague Dawley rats; conditions: Gln by gavage, vs saline (FIG. 4)
Description: as §1, §3

striatal Gln levels [1]: significantly increased | plasma Gln levels [3]: increased
SMILES: NC(=O)CC[C@H](N)C(=O)O [Gln, glutamine]
striatal Glu levels [1]: slightly decreased | Maximal spontaneous GABA release ([2]; Gln by gavage, freely moving rats, saline 111±7%, p<0.05 (FIG. 6)): 141±12% | NMDA-evoked GABA release ([2]; NMDA 500 μM in aCSF 1 hr after Gln by gavage, saline 177±40% (FIG. 7)): 252±37% | plasma Glu levels [3]: not
